Activity calls are given as the source filed them. The rule behind the calls is not given here.
What was measured:
Cortical neurone = assay: Neuroprotective activity in Sprague-Dawley rat cortical neurons assessed as inhibition of amyloid beta (25 to 35 residues)-induced neurotoxicity compound pretreated at 10 to 50 uM for 2 hrs followed by addition of 10 uM amyloid beta (25 to 35 residues) for 40 hrs by MTT assay; assay type: functional
[1] = Neuroprotective activity in Sprague-Dawley rat cortical neurons assessed as inhibition of amyloid beta (25 to 35 residues)-induced neurotoxicity compound pretreated at 50 uM for 2 hrs followed by addition of 10 uM amyloid beta (25 to 35 residues) for 40 hrs by MTT assay; assay type: functional, Cortical neurone

Compound	inhibition (Cortical neurone)	inhibition (INH) [1] [%]
CO[C@H](c1ccccc1)[C@H]1[C@H](c2ccccc2)[C@H](O)C(=O)N1C	inactive	–
CO[C@H](c1ccccc1)[C@@H]1[C@@H](c2ccccc2)[C@H](O)C(=O)N1C	inactive	–
CO[C@@H](c1ccccc1)[C@@H]1[C@@H](c2ccccc2)[C@H](O)C(=O)N1C	–	22.24

— ChEMBL document CHEMBL3739332, “γ- and δ-Lactams from the Leaves of Clausena lansium” (2015)
